Source: patent publication US20230233569A1 (Revolution Medicines, Inc., priority 2020, published 2023)
pIC50: −log10 of the molar value. Like-named read-outs stand apart in the source and are kept apart here.

Legend:
Assay in all cases: Ras-Raf disruption / FRET / MOA assay (BRAF RBD)
Type in all cases: biochemical
KRAS G12D = KRAS G12D (Homo sapiens, UniProt P01116+P62937, G12D); conditions: with Cyclophilin A
Summary of the method: (§1)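 TR-FRET in 25 mM HEPES pH 7.3, 100 mM NaCl, 5 mM MgCl2, 0.1% BSA, 0.002% Tween20 with 25 μM Cyclophilin A, 12.5 nM His6-Ras-GMPPNP, 50 nM GST-BRAF RBD; compound 10-point 3-fold series from 30 μM. After 3 h at 25 °C, Eu anti-His/APC anti-GST added for 1.5 h; IC50 from ratio decrease versus DMSO.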

KRAS G12S = KRAS G12S (Homo sapiens, UniProt P01116+P62937, G12S); conditions: with Cyclophilin A
Chain of KRAS G12S (P01116 1-169 isoform P01116-2 G12S limits assumed): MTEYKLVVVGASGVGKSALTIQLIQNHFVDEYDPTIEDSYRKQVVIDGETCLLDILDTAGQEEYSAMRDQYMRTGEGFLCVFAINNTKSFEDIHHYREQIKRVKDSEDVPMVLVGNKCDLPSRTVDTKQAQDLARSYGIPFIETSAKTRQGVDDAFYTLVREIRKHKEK
Chain of KRAS G12S (P62937 whole entry): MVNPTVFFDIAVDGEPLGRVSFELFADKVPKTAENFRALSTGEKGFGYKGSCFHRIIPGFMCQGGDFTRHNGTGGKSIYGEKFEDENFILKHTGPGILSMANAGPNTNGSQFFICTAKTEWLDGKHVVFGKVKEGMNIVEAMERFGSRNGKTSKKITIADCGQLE
Summary of the method: as §1

KRAS G12V = KRAS G12V (Homo sapiens, UniProt P01116+P62937, G12V); conditions: with Cyclophilin A
Chain of KRAS G12V (P01116 1-169 isoform P01116-2 G12V limits assumed): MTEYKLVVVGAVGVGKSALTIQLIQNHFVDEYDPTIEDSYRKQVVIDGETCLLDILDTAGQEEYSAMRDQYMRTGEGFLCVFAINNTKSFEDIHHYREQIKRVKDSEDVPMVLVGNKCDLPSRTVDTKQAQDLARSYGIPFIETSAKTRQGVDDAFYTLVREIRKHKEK
Chain of KRAS G12V (P62937 whole entry): as the sequence (P62937 whole entry) above
Summary of the method: as §1

KRAS G13C = KRAS G13C (Homo sapiens, UniProt P01116+P62937, G13C); conditions: with Cyclophilin A
Chain of KRAS G13C (P01116 1-169 isoform P01116-2 G13C limits assumed): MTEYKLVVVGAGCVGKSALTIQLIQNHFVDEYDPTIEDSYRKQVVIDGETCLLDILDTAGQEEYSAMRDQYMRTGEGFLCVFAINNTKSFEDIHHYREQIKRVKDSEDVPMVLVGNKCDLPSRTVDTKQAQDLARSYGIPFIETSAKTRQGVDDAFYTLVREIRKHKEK
Chain of KRAS G13C (P62937 whole entry): as the sequence (P62937 whole entry) above
Summary of the method: as §1

KRAS G13D = KRAS G13D (Homo sapiens, UniProt P01116+P62937, G13D); conditions: with Cyclophilin A
Chain of KRAS G13D (P01116 1-169 isoform P01116-2 G13D limits assumed): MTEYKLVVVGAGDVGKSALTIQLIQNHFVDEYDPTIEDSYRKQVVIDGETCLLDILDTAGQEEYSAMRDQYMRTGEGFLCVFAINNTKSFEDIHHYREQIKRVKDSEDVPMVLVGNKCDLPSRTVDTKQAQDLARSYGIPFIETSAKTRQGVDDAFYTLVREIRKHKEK
Chain of KRAS G13D (P62937 whole entry): as the sequence (P62937 whole entry) above
Summary of the method: as §1

KRAS Q61H = KRAS Q61H (Homo sapiens, UniProt P01116+P62937, Q61H)
Chain of KRAS Q61H (P01116 1-169 isoform P01116-2 Q61H limits assumed): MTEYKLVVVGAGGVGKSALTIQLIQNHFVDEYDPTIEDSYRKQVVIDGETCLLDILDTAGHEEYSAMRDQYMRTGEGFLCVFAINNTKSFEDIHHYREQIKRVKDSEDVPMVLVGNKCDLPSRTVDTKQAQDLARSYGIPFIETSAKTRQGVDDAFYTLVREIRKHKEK
Chain of KRAS Q61H (P62937 whole entry): as the sequence (P62937 whole entry) above
Summary of the method: as §1

KRAS WT = KRAS WT (Homo sapiens, UniProt P01116+P62937); conditions: with Cyclophilin A
Chain of KRAS WT (P01116 1-169 isoform P01116-2 limits assumed): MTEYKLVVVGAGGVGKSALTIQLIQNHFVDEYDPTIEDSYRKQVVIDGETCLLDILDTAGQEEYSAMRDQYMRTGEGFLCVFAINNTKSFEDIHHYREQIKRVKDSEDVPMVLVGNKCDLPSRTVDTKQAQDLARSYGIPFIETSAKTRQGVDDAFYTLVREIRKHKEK
Chain of KRAS WT (P62937 whole entry): as the sequence (P62937 whole entry) above
Summary of the method: as §1

NRAS G12C = NRAS G12C (Homo sapiens, UniProt P01111+P62937, G12C)
Chain of NRAS G12C (P01111 whole entry G12C): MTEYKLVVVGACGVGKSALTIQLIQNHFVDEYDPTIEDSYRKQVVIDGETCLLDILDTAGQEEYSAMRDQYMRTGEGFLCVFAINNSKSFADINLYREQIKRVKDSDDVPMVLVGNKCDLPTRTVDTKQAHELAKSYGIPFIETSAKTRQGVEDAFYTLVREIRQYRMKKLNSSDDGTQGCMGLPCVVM
Chain of NRAS G12C (P62937 whole entry): as the sequence (P62937 whole entry) above
Summary of the method: as §1

NRAS Q61K = NRAS Q61K (Homo sapiens, UniProt P01111+P62937, Q61K)
Chain of NRAS Q61K (P01111 whole entry Q61K): as the sequence (P01111 whole entry G12C) above, with C12G, Q61K counted along it
Chain of NRAS Q61K (P62937 whole entry): as the sequence (P62937 whole entry) above
Summary of the method: as §1

NRAS Q61R = NRAS Q61R (Homo sapiens, UniProt P01111+P62937, Q61R)
Chain of NRAS Q61R (P01111 whole entry Q61R): as the sequence (P01111 whole entry G12C) above, with C12G, Q61R counted along it
Chain of NRAS Q61R (P62937 whole entry): as the sequence (P62937 whole entry) above
Summary of the method: as §1

NRAS WT = NRAS WT (Homo sapiens, UniProt P01111+P62937)
Chain of NRAS WT (P01111 whole entry): as the sequence (P01111 whole entry G12C) above, with C12G counted along it
Chain of NRAS WT (P62937 whole entry): as the sequence (P62937 whole entry) above
Summary of the method: as §1

KRAS G12C = KRAS G12C (Homo sapiens, UniProt P01116+P62937, G12C); conditions: with Cyclophilin A
Chain of KRAS G12C (P01116 1-169 isoform P01116-2 G12C limits assumed): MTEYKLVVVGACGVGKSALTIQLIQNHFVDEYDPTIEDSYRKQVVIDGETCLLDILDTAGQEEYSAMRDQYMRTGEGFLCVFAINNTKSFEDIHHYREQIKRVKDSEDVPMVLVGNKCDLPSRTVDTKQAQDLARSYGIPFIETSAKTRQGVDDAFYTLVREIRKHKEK
Chain of KRAS G12C (P62937 whole entry): as the sequence (P62937 whole entry) above
Summary of the method: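 His6-K-Ras G12C-GMPPNP (12.5 nM), GST-BRAF RBD (50 nM) and tagless Cyclophilin A (25 μM) incubated 3 h at 25 °C with compound (10-point 3-fold series from 30 μM), pH 7.3 HEPES buffer. Anti-His Eu/anti-GST APC added for 1.5 h; decreased TR-FRET ratio vs DMSO gives IC50.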

[1] = Ras-Raf disruption, read-out: KRAS G12D FRET data IC50
[2] = Ras-Raf disruption, read-out: KRAS G12S FRET data IC50
[3] = Ras-Raf disruption, read-out: KRAS G12V FRET data IC50
[4] = Ras-Raf disruption, read-out: KRAS G13C FRET data IC50
[5] = Ras-Raf disruption, read-out: KRAS G13D FRET data IC50
[6] = KRAS Q61H, read-out: KRAS Q61H FRET data IC50
[7] = Ras-Raf disruption, read-out: KRAS WT FRET data IC50
[8] = NRAS G12C, read-out: NRAS G12C FRET data IC50
[9] = NRAS Q61K, read-out: NRAS Q61K FRET data IC50
[10] = NRAS Q61R, read-out: NRAS Q61R FRET data IC50
[11] = NRAS WT, read-out: NRAS WT FRET data IC50
[12] = Ras-Raf disruption, read-out: KRAS G12C FRET data IC50

Chain of KRAS G12D (P01116 1-169 isoform P01116-2 G12D limits assumed): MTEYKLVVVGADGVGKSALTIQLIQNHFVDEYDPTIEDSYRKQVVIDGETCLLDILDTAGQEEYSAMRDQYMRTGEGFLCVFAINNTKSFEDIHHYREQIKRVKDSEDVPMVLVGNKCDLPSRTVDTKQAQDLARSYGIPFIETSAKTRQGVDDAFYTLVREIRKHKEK
Chain of KRAS G12D (P62937 whole entry): as the sequence (P62937 whole entry) above

SMILES	pIC50 (KRAS G12D; [1])	pIC50 (KRAS G12S; [2])	pIC50 (KRAS G12V; [3])	pIC50 (KRAS G13C; [4])	pIC50 (KRAS G13D; [5])	pIC50 (KRAS Q61H; [6])	pIC50 (KRAS WT; [7])	pIC50 (NRAS G12C; [8])	pIC50 (NRAS Q61K; [9])	pIC50 (NRAS Q61R; [10])	pIC50 (NRAS WT; [11])	pIC50 (KRAS G12C; [12])	further results
CCn1c(-c2cccnc2[C@H](C)OC)c2c3cc(ccc31)-c1csc(n1)C[C@H](NC(=O)[C@H](C(C)C)N(C)C(=O)N1CC[C@@H](N(C)C(=O)[C@@H]3CN3)C1)C(=O)N1CCC[C@H](N1)C(=O)OCC(C)(C)C2 (atropisomer, axis not shown) [Example 227]	6.00 to 7.00	6.00 to 7.00	6.00 to 7.00	6.00 to 7.00	6.00 to 7.00	7.00 to 8.00	6.00 to 7.00	7.00 to 8.00	7.00 to 8.00	6.00 to 7.00	6.00 to 7.00	6.00 to 7.00	
CCn1c(-c2cccnc2[C@H](C)OC)c2c3cc(ccc31)-c1csc(n1)C[C@H](NC(=O)[C@H](C(C)C)N(C)C(=O)N(C)CC1CN(C(=O)[C@H]3CN3)C1)C(=O)N1CCC[C@H](N1)C(=O)OCC(C)(C)C2 (atropisomer, axis not shown) [Example 293]	6.00 to 7.00	6.00 to 7.00	6.00 to 7.00	6.00 to 7.00	6.00 to 7.00	7.00 to 8.00	6.00 to 7.00	7.00 to 8.00	7.00 to 8.00	6.00 to 7.00	6.00 to 7.00	7.00 to 8.00	
CCn1c(-c2cccnc2[C@H](C)OC)c2c3cc(ccc31)-c1cc(O)cc(c1)C[C@H](NC(=O)[C@H](C(C)C)N(C)C(=O)[C@H]1C[C@@H]3N[C@@H]3C1)C(=O)N1CCC[C@H](N1)C(=O)OCC(C)(C)C2 (atropisomer, axis not shown) [Example 286]	6.00 to 7.00	6.00 to 7.00	6.00 to 7.00	7.00 to 8.00	7.00 to 8.00	7.00 to 8.00	6.00 to 7.00	6.00 to 7.00	6.00 to 7.00	6.00 to 7.00	6.00 to 7.00	6.00 to 7.00	
CCn1c(-c2cccnc2[C@H](C)OC)c2c3cc(ccc31)-c1csc(n1)C[C@H](NC(=O)[C@H](C(C)C)N(C)C(=O)N(C)CC1CN(C(=O)[C@@H]3CN3)C1)C(=O)N1CCC[C@H](N1)C(=O)OCC(C)(C)C2 (atropisomer, axis not shown) [Example 294]	6.00 to 7.00	6.00 to 7.00	6.00 to 7.00	6.00 to 7.00	6.00 to 7.00	7.00 to 8.00	6.00 to 7.00	7.00 to 8.00	7.00 to 8.00	6.00 to 7.00	6.00 to 7.00	7.00 to 8.00	
CCn1c(-c2cccnc2[C@H](C)OC)c2c3cc(ccc31)-c1cc(O)cc(c1)C[C@H](NC(=O)[C@H](C(C)C)N(C)C(=O)[C@H]1CCN(C(=O)C3CO3)C1)C(=O)N1CCC[C@H](N1)C(=O)OCC(C)(C)C2 (stereo partly drawn) [Example 330]	7.00 to 8.00	7.00 to 8.00	7.00 to 8.00	> 8.00	7.00 to 8.00	7.00 to 8.00	7.00 to 8.00	> 8.00	6.00 to 7.00	6.00 to 7.00	7.00 to 8.00	> 8.00	
CCn1c(-c2cccnc2[C@H](C)OC)c2c3cc(ccc31)-c1csc(n1)C[C@H](NC(=O)[C@H](C(C)C)N(C)C(=O)N1CC[C@H](N(C)C(=O)[C@H]3CN3)C1)C(=O)N1CCC[C@H](N1)C(=O)OCC(C)(C)C2 (atropisomer, axis not shown) [Example 228]	5.00 to 6.00	6.00 to 7.00	6.00 to 7.00	6.00 to 7.00	6.00 to 7.00	7.00 to 8.00	6.00 to 7.00	7.00 to 8.00	7.00 to 8.00	6.00 to 7.00	6.00 to 7.00	6.00 to 7.00	
CCn1c(-c2cccnc2[C@H](C)OC)c2c3cc(ccc31)-c1cc(O)cc(c1)C[C@H](NC(=O)[C@@H](COC1CCN(C(=O)[C@H]3CN3)CC1)C(C)C)C(=O)N1CCC[C@H](N1)C(=O)OCC(C)(C)C2 (atropisomer, axis not shown) [Example 211]	5.00 to 6.00	5.00 to 6.00	5.00 to 6.00	6.00 to 7.00	5.00 to 6.00	6.00 to 7.00	6.00 to 7.00	7.00 to 8.00	5.00 to 6.00	5.00 to 6.00	6.00 to 7.00	7.00 to 8.00	
CCn1c(-c2cccnc2[C@H](C)OC)c2c3cc(ccc31)-c1cc(O)cc(c1)C[C@H](NC(=O)[C@H](C(C)C)N(C)C(=O)N1CCN(C(=O)[C@@H]3CN3)CC1=O)C(=O)N1CCC[C@H](N1)C(=O)OCC(C)(C)C2 (atropisomer, axis not shown) [Example 205]	5.00 to 6.00	6.00 to 7.00	6.00 to 7.00	> 8.00	6.00 to 7.00	7.00 to 8.00	7.00 to 8.00	7.00 to 8.00	6.00 to 7.00	6.00 to 7.00	7.00 to 8.00	7.00 to 8.00	
CCn1c(-c2cccnc2[C@H](C)OC)c2c3cc(ccc31)-c1cc(cc(C(F)F)c1)C[C@H](NC(=O)[C@H](C1CCCC1)N(C)C(=O)CN(C)C(=O)[C@@H]1N[C@@H]1C1CC1)C(=O)N1CCC[C@H](N1)C(=O)OCC(C)(C)C2 [Example 320]													pIC50 (KRAS G12D; KRAS G12D FRET data IC50, Ras-Raf disruption): 5.00 to 6.00; pIC50 (KRAS G12S; KRAS G12S FRET data IC50, Ras-Raf disruption): 5.00 to 6.00; pIC50 (KRAS G12V; KRAS G12V FRET data IC50, Ras-Raf disruption): 5.00 to 6.00; pIC50 (KRAS G13C; KRAS G13C FRET data IC50, Ras-Raf disruption): 6.00 to 7.00; pIC50 (KRAS G13D; KRAS G13D FRET data IC50, Ras-Raf disruption): 5.00 to 6.00; pIC50 (KRAS Q61H): 6.00 to 7.00; pIC50 (KRAS WT; KRAS WT FRET data IC50, Ras-Raf disruption): 5.00 to 6.00; pIC50 (NRAS G12C; NRAS G12C FRET data IC50, NRAS G12C): 6.00 to 7.00; pIC50 (NRAS Q61K): 5.00 to 6.00; pIC50 (NRAS Q61R): 5.00 to 6.00; pIC50 (NRAS WT): 5.00 to 6.00; pIC50 (KRAS G12C; KRAS G12C FRET data IC50, Ras-Raf disruption): 6.00 to 7.00
CCn1c(-c2cccnc2[C@H](C)OC)c2c3cc(ccc31)-c1cc(O)cc(c1)C[C@H](NC(=O)[C@H](C(C)C)N(C)C(=O)c1nc(NC(=O)[C@H]3CN3)cs1)C(=O)N1CCC[C@H](N1)C(=O)OCC(C)(C)C2 (atropisomer, axis not shown) [Example 212]	5.00 to 6.00	6.00 to 7.00	6.00 to 7.00	7.00 to 8.00	6.00 to 7.00	7.00 to 8.00	6.00 to 7.00	6.00 to 7.00	6.00 to 7.00	6.00 to 7.00	6.00 to 7.00	6.00 to 7.00	
CCn1c(-c2cccnc2[C@H](C)OC)c2c3cc(ccc31)-c1csc(n1)C[C@H](NC(=O)[C@H](C(C)C)N(C)C(=O)N(C)C1CN(C(=O)[C@@H]3CN3)C1)C(=O)N1CCC[C@H](N1)C(=O)OCC(C)(C)C2 [Example 221]	5.00 to 6.00	6.00 to 7.00	6.00 to 7.00	6.00 to 7.00	6.00 to 7.00	6.00 to 7.00	6.00 to 7.00	6.00 to 7.00	6.00 to 7.00	6.00 to 7.00	6.00 to 7.00	6.00 to 7.00	
CCn1c(-c2cccnc2[C@H](C)OC)c2c3cc(ccc31)-c1cc(O)cc(c1)C[C@H](NC(=O)[C@H](C(C)C)N(C)C(=O)[C@H]1CCN(C(=O)C3(C)CO3)C1)C(=O)N1CCC[C@H](N1)C(=O)OCC(C)(C)C2 (stereo partly drawn) [Example 332]	6.00 to 7.00	7.00 to 8.00	7.00 to 8.00	7.00 to 8.00	7.00 to 8.00	7.00 to 8.00	7.00 to 8.00	7.00 to 8.00	6.00 to 7.00	6.00 to 7.00	7.00 to 8.00	7.00 to 8.00	
